# Test results as given in patent publication US20240140991A1, “ANTIBIOTIC NATURAL PRODUCT ANALOGUES” (THE QUEEN'S UNIVERSITY OF BELFAST, priority 2021, published 2024).
# Positions of bridges follow the written chain, without caps; N, C: chain ends. Non-standard residues stand in square brackets, D forms with d. Residues, ends and D or L forms follow the SMILES beside them. *: point of attachment. Octanoyl(7-Me) = CC(C)CCCCCC(=O)*; dOrn = NCCC[C@@H](N)C(=O)O; Orn = NCCC[C@H](N)C(=O)O; Dap = NC[C@H](N)C(=O)O
# Tests used:
# [1] = tested on: K. pneumoniae JS-123; format: cell-based, Klebsiella pneumoniae; details: JS-123
# Outline: (§1)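 Broth microdilution in MHB per CLSI; inoculum 2×10^5 CFU mL^−1 from log-phase TSB cultures at OD600 0.5. Plates incubated 16 hours at 37° C with shaking at 220 rpm. MIC is the lowest concentration preventing visible growth.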
# [2] = tested on: Escherichia coli ATCC 25922; format: cell-based; details: in vitro activity quoted in the in vivo section
# Outline: as §1
# [3] = In vivo tolerability study; parameters: species or system mice (ICR, CD1); details: subcutaneous, 3 doses at 8-h intervals, up to 40 mg/kg (total daily dose 120 mg/kg), naive mice
# Method: Animal Strain: Mice used in these studies were supplied by Charles River (Margate UK) and were specific pathogen free. The strain of mice used was ICR (also known as CD1 Mice) which is a well characterized outbred murine strain. Mice (male) were 11-15 g on receipt and were allowed to acclimatise for at least 7 days.
# Test compounds: Compound 6 (i.e. laterocidamide) was dissolved in water for injection in which it formed a clear colourless solution. Polymyxin B was dissolved in saline for injection to produce a clear colourless solution.
# Tolerability study: The tolerability of compound 6 was assessed in the same mouse strain used for the efficacy studies. […] The mice used in the tolerability study were naïve and were not immunosuppressed or infected.
# [4] = tested on: HepG2 cells; assay: Cytotoxicity MTT assay; details: HepG2, 128 μg/mL, 24 h
# Method: In addition to a single vehicle control, compounds (diluted from DMSO stock) were added to each well to obtain in a final 128 μg/mL concentration (max. final DMSO concentration 0.5%) for all compounds except for oritavancin which was administered at 50 μM. Incubation was done for 24 h at 37° C., 7% CO2. After the incubation, MTT was added to each well at a final concentration of 0.40 mg/mL. The plates were then incubated for 2 h at 37° C., 7% CO2. Medium was carefully removed via suction, and purple formazan crystals were resuspended in 100 μL DMSO. Absorbance was read at 570 nm using a Clariostar plate reader. The data was then analysed with GraphPad Prism software. Technical triplicates for each condition were used, along with biological duplicates.
# [5] = tested on: E. coli ATCC 25922; assay: Mouse thigh abscess (neutropenic thigh infection) efficacy model; format: in vivo, mice (ICR, CD1)
# Method: Efficacy study: The in vivo efficacy of compound 6 was assessed in a mouse thigh abscess model where both thighs of each mouse were infected with E. coli ATCC 25922 Immunosuppression: Mice were rendered neutropenic with subcutaneous injections of cyclophosphamide at 150 mg/kg 4 days before infection and 100 mg/kg 1 day before infection. The immunosuppression regime leads to neutropenia starting 24 h post administration of the first injection, which continues throughout the study.
# Infection: The bacterial strain used was E. coli ATCC 25922. An aliquot of a previously prepared frozen stock of the strain was thawed and diluted in sterile PBS to the desired inoculum just prior to infection. […]
# Endpoints: 1 h and 20.5 (planned 25) h post-infection, the clinical condition of all animals was assessed prior to humane euthanasia using pentobarbitone overdose, and the thighs were removed and weighed. Thigh samples were homogenized in 3 mL ice cold sterile PBS; the homogenates were quantitatively cultured onto CLED agar and incubated at 37° C. for 18-24 h before colonies were counted.
# Data analysis: The data from the culture burdens were analysed using appropriate non-parametric statistical models (Kruskal-Wallis using Conover-Inman to make all pairwise comparisons between groups) with StatsDirect software v. […]
# [6] = tested on: P. aeruginosa M-120; format: cell-based, Pseudomonas aeruginosa; details: M-120
# Outline: as §1
# [7] = tested on: A. baumannii MDR; format: cell-based, Acinetobacter baumannii; details: A. baumannii MDR clinical isolate
# Outline: as §1
compound,measurement,setting,value
"CC[C@H](C)[C@@H]1NC(=O)[C@@H](NC(=O)[C@H](Cc2c[nH]c3ccccc23)NC(=O)[C@@H](CCCN)NC(=O)CNC(=O)[C@H](CCCN)NC(=O)[C@@H](CCCN)NC(=O)[C@@H](Cc2c[nH]c3ccccc23)NC(=O)[C@@H](Cc2ccc(O)cc2)NC(=O)[C@@H](CO)NC(=O)CCCCCC(C)C)CNC(=O)CNC(=O)CNC(=O)[C@H](CC(N)=O)NC1=O [Laterocidamide, laterocidamide] ({Octanoyl(7-Me)}-[dS][dY][dW][dOrn][Orn]G[dOrn]W[Dap]INGG; lactam 9-C)",Minimum inhibitory concentration (MIC),[1],≤0.5 µg/mL
same,MIC values against E. coli ATCC 25922,[2],1 µg/mL
same,tolerability,[3]; listed as Compound 6,good tolerability
same,tolerability,[3]; listed as compound 6,well tolerated
same,cytotoxicity / cell viability,[4],completely non-toxic
same,cytotoxicity / cell viability,[4]; listed as compound 6,low cytotoxicity
same,reduction in bacterial load relative to the untreated group,"[5]; 40 mg/kg SC q8h, neutropenic mice, thigh burden",~5 log
same,dose response of thigh burden,"[5]; 10, 20 and 40 mg/kg SC q8h",clear dose response
same,Minimum inhibitory concentration (MIC),[6],2 to 4 µg/mL
same,Minimum inhibitory concentration (MIC),[7],4 µg/mL
